Laboratory results reported in article PMC8119466, “A screen of FDA-approved drugs identifies inhibitors of protein tyrosine phosphatase 4A3 (PTP4A3 or PRL-3)” (Scientific Reports, 2021).
Structures can show the parent of a compound that is named as a salt. Where two headings read alike, the source gives them in different places.

Key:
recombinant PRL-3 = target: T1, recombinant PRL-3 (Homo sapiens, UniProt O75365); assay: In vitro phosphatase assay (DiFMUP hydrolysis), PRL-3; type: biochemical; as to % Phosphatase Activity (compared to DMSO) PRL-3: test concentration or dose not given here
T1 construct: 6xHis (N, cleaved yes); made in house; host or cells: E. coli One Shot BL21 Star

recombinant PRL-2 = target: T2, recombinant PRL-2 (Homo sapiens, UniProt Q12974); assay: In vitro phosphatase assay (DiFMUP hydrolysis), PRL-2; type: biochemical;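 also: PRL-2 activity read as DiFMUP hydrolysis after 20 min at room temperature with drug, enzyme first pre-reduced at 4 °C for 20 min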
T2 construct: 6xHis (N, cleaved yes); made in house; host or cells: E. coli One Shot BL21 Star
T2 sequence (Q12974 1-167): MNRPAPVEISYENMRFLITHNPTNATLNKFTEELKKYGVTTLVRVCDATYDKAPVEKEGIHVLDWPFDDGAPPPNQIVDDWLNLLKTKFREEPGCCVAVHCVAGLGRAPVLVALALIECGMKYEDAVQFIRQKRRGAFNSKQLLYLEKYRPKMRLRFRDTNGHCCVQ

[1] = FDA-approved drug screen, compared to DMSO

T1 sequence (O75365 whole entry): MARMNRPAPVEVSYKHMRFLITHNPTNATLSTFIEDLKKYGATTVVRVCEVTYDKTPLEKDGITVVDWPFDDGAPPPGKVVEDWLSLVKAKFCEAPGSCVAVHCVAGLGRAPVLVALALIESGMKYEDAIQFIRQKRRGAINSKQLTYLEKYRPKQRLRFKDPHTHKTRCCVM

Row | Molecule | effect on PRL phosphatase activity (DiFMUP hydrolysis), in words (recombinant PRL-3; PRL-1, PRL-2, PRL-3 for research-grade inhibitors, PRL-3 for Dexamethasone) | % Phosphatase Activity (compared to DMSO) PRL-2 (recombinant PRL-2; [1]) [%] | % Phosphatase Activity (compared to DMSO) PRL-3 (recombinant PRL-3; [1]) [%] | % Phosphatase Activity (compared to DMSO) PRL-2 (recombinant PRL-2) [%] | % Phosphatase Activity (compared to DMSO) PRL-3 (recombinant PRL-3) [%]
1 | C[C@@H]1C[C@H]2[C@@H]3CCC4=CC(=O)C=C[C@]4(C)[C@@]3(F)[C@@H](O)C[C@]2(C)[C@@]1(O)C(=O)CO [Dexamethasone, reference compound] | no effect on PRL-3 phosphatase activity |  |  |  | 
2 | C[N+]1(C)CCC(=C(c2ccccc2)c2ccccc2)CC1 [Diphemanil Methylsulfate] |  | 124 | 91 |  | 
3 | CN(CCOc1ccc(NS(C)(=O)=O)cc1)CCc1ccc(NS(C)(=O)=O)cc1 [Dofetilide] |  | 88 | 82 |  | 
4 | CCN[C@H]1C[C@H](C)S(=O)(=O)c2sc(S(N)(=O)=O)cc21 [Dorzolamide HCl] |  | 81 | 87 |  | 
5 | CCn1cc(C(=O)O)c(=O)c2cc(F)c(N3CCNCC3)nc21 [Enoxacin] |  | 95 | 98 |  | 
6 | O=S(=O)([O-])CCCS(=O)(=O)[O-].[Na+].[Na+] [Eprodisate (disodium)] |  | 126 | 112 |  | 
7 | OC(Cn1cncn1)(Cn1cncn1)c1ccc(F)cc1F [Fluconazole] |  | 97 | 76 |  | 
8 | O=c1[nH]cc(F)c(=O)[nH]1 [Fluorouracil (5-Fluoracil, 5-FU)] |  | 109 | 75 |  | 
9 | N[C@@H](CSCCCO)C(=O)O [Fudosteine] |  | 75 | 92 |  | 
10 | Br.COc1ccc2c3c1O[C@H]1C[C@@H](O)C=C[C@@]31CCN(C)C2 [Galanthamine HBr] |  | 85 | 93 |  | 
11 | CC1(C)O[C@@H]2C[C@H]3[C@@H]4CCC5=CC(=O)CC[C@]5(C)[C@@]4(F)[C@@H](O)C[C@]3(C)[C@]2(C(=O)CCl)O1 [Halcinonide] |  | 105 | 93 |  | 
12 | Cl.Cl.OCCOCCN1CCN(C(c2ccccc2)c2ccc(Cl)cc2)CC1 (stereo not drawn) [Hydroxyzine 2HCl] |  | 103 | 85 |  | 
13 | COC1=C(OC)C(=O)C(CCCCCCCCCCO)=C(C)C1=O [Idebenone] |  | 150 | 101 |  | 
14 | CCC(C)n1ncn(-c2ccc(N3CCN(c4ccc(OCC5COC(Cn6cncn6)(c6ccc(Cl)cc6Cl)O5)cc4)CC3)cc2)c1=O (stereo not drawn) [Itraconazole] |  | 93 | 74 |  | 
15 | CC[C@@H](C(N)=O)N1CCCC1=O [Levetiracetam] |  | 90 | 71 |  | 
16 | CCN(CC)CC(=O)Nc1c(C)cccc1C [Lidocaine] |  | 91 | 63 |  | 
17 | COC(=O)C1=C(C)NC(C)=C(C(=O)OCCN2CCN(C(c3ccccc3)c3ccccc3)CC2)C1c1cccc([N+](=O)[O-])c1 (stereo not drawn) [Manidipine] |  | 93 | 77 |  | 
18 | C#C[C@]1(O)CC[C@H]2[C@@H]3CCc4cc(OC)ccc4[C@H]3CC[C@@]21C [Mestranol] |  | 99 | 77 |  | 
19 | O=C(NCCN1CCOCC1)c1ccc(Cl)cc1 [Moclobemide (Ro 111163)] |  | 109 | 83 |  | 
20 | Cl.N=C(N=C(N)N)N1CCOCC1 [Moroxydine HCl] |  | 102 | 79 |  | 
21 | FC(F)(F)c1ccc(/C=C/c2nc(COc3ccc(CCCCn4ccnn4)cc3)co2)cc1 [Mubritinib (TAK 165)] |  |  |  | 114 | 101
22 | C=C1CC[C@@]2(O)[C@H]3Cc4ccc(O)c5c4[C@@]2(CCN3CC2CC2)[C@H]1O5 [Nalmefene HCl] |  | 102 | 95 |  | 
23 | Cl.O=C(O)/C=C/c1ccc(Cn2ccnc2)cc1 [Ozagrel HCl] |  | 120 | 81 |  | 
24 | CC(=O)O[C@H]1C[C@@H]2CC[C@@H]3[C@H](CC[C@@]4(C)[C@H]3C[C@H]([N+]3(C)CCCCC3)[C@@H]4OC(C)=O)[C@@]2(C)C[C@@H]1[N+]1(C)CCCCC1.[Br-].[Br-] [Pancuronium dibromide] |  | 109 | 85 |  | 
25 | Aprotinin |  | 90 |  |  | 
